Experimental data from the supplement of paper PMC11451515.

System: SEM cells
Test: cell viability relative to DMSO control; higher = less cytotoxic
Conditions: 48 h
Method in brief: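 NOMO1 or SEM cells were plated at 500 cells/well and P12-Ichikawa cells at 1000 cells/well in 1536-well plates (5 μl), after each leukemia line had been adapted for at least four passages in each medium. Pin dosing delivered library compounds in DMSO at 11 threefold concentrations, 47 μM to 0.79 nM. CellTiter-Glo One luminescence was read after 48 h at 37°C. Viability is reported as a per-plate percentage of DMSO wells, with cell-free wells as background.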

[1] = HPLM + 10% dialyzed FBS, 0.000781 µM
[2] = HPLM + 10% dialyzed FBS, 0.00234 µM
[3] = HPLM + 10% dialyzed FBS, 0.00702 µM
[4] = HPLM + 10% dialyzed FBS, 0.0211 µM
[5] = HPLM + 10% dialyzed FBS, 0.0632 µM
[6] = HPLM + 10% dialyzed FBS, 0.19 µM
[7] = HPLM + 10% dialyzed FBS, 0.569 µM
[8] = HPLM + 10% dialyzed FBS, 1.71 µM
[9] = HPLM + 10% dialyzed FBS, 5.12 µM
[10] = HPLM + 10% dialyzed FBS, 15.4 µM
[11] = HPLM + 10% dialyzed FBS, 46.1 µM
[12] = RPMI 5 mM glucose + 10% FBS, 0.000781 µM
[13] = RPMI 5 mM glucose + 10% FBS, 0.00234 µM
[14] = RPMI 5 mM glucose + 10% FBS, 0.00702 µM
[15] = RPMI 5 mM glucose + 10% FBS, 0.0211 µM
[16] = RPMI 5 mM glucose + 10% FBS, 0.0632 µM
[17] = RPMI 5 mM glucose + 10% FBS, 0.19 µM
[18] = RPMI 5 mM glucose + 10% FBS, 0.569 µM
[19] = RPMI 5 mM glucose + 10% FBS, 1.71 µM
[20] = RPMI 5 mM glucose + 10% FBS, 5.12 µM
[21] = RPMI 5 mM glucose + 10% FBS, 15.4 µM
[22] = RPMI 5 mM glucose + 10% FBS, 46.1 µM
[23] = RPMI 5 mM glucose + 10% dialyzed FBS, 0.000781 µM
[24] = RPMI 5 mM glucose + 10% dialyzed FBS, 0.00234 µM
[25] = RPMI 5 mM glucose + 10% dialyzed FBS, 0.00702 µM
[26] = RPMI 5 mM glucose + 10% dialyzed FBS, 0.0211 µM
[27] = RPMI 5 mM glucose + 10% dialyzed FBS, 0.0632 µM
[28] = RPMI 5 mM glucose + 10% dialyzed FBS, 0.19 µM
[29] = RPMI 5 mM glucose + 10% dialyzed FBS, 0.569 µM
[30] = RPMI 5 mM glucose + 10% dialyzed FBS, 1.71 µM
[31] = RPMI 5 mM glucose + 10% dialyzed FBS, 5.12 µM
[32] = RPMI 5 mM glucose + 10% dialyzed FBS, 15.4 µM
[33] = RPMI 5 mM glucose + 10% dialyzed FBS, 46.1 µM

Compound	cell viability [1] [%]	cell viability [2] [%]	cell viability [3] [%]	cell viability [4] [%]	cell viability [5] [%]	cell viability [6] [%]	cell viability [7] [%]	cell viability [8] [%]	cell viability [9] [%]	cell viability [10] [%]	cell viability [11] [%]	cell viability [12] [%]	cell viability [13] [%]	cell viability [14] [%]	cell viability [15] [%]	cell viability [16] [%]	cell viability [17] [%]	cell viability [18] [%]	cell viability [19] [%]	cell viability [20] [%]	cell viability [21] [%]	cell viability [22] [%]	cell viability [23] [%]	cell viability [24] [%]	cell viability [25] [%]	cell viability [26] [%]	cell viability [27] [%]	cell viability [28] [%]	cell viability [29] [%]	cell viability [30] [%]	cell viability [31] [%]	cell viability [32] [%]	cell viability [33] [%]
C1CN\2C[C@@H](\N=C2S1)C3=CC=CC=C3	82.1	95	104	88.6	98.7	99.5	100	100	97.8	100	86.1	73.7	86.7	89.4	83.1	90.9	75.2	87.6	89.3	88	87.8	40.4	88.8	95.3	100	107	106	116	107	106	118	100	76.9
O=C(NCC1CCOCC1)c1cnc(Nc2ccc(Cl)cc2Cl)nc1C(F)(F)F	89.6	98.1	99	67.7	108	103	106	102	99.5	114	117	95.9	103	108	61.9	99.1	100	99.7	103	99.1	105	98.5	94.2	97.8	108	67.9	121	119	113	112	91.7	123	101
COC(=O)[C@H](c1ccccc1Cl)N1CCc2sccc2C1	75.5	89.5	105	110	96.3	111	106	120	109	121	111	87.5	80.4	97.2	98.9	93.3	102	106	103	107	107	108	84.1	84.1	86.5	108	110	91.6	95.3	135	116	122	99.5
C1COC(NC(C2CC2)C2CC2)=N1	79.5	78	66.1	95.3	72.9	87.9	81.2	21.6	88.7	99	60.1	72.5	92	72.4	75.8	79.5	81.4	87.2	15.3	75.6	75.6	45.9	74.6	89.1	66.9	75.7	73.6	81.8	106	16.6	87.5	105	36.4
C[C@H](Cc1ccc(O)c(O)c1)[C@@H](C)Cc1ccc(O)c(O)c1	123	121	113	116	130	116	29	118	122	105	28.8	117	110	105	104	117	103	37.3	118	128	101	6.24	144	113	119	128	131	116	36.6	109	112	109	7.68
C[C@@H](N)C1CC[C@@H](CC1)C(=O)NC2=CC=NC=C2 (some centres undefined)	91.8	117	107	108	103	106	129	129	119	122	120	94	99.3	99.8	90.3	103	108	112	115	104	109	113	93.7	107	111	121	117	114	131	120	114	116	114
CCCCCN(CCC12CC3CC(CC(C3)C1)C2)C(=O)NCCCc1ccncc1	96.2	110	108	106	102	109	107	106	107	102	89.9	97.1	92.9	100	106	112	110	97.3	114	96.9	108	100	86.9	96	106	110	105	107	106	116	120	90.6	97
N#Cc1ccnc(N2C(=O)CC[C@H]2C(=O)N(c2cncc(F)c2)[C@H](C(=O)NC2CC(F)(F)C2)c2ccccc2Cl)c1	94.8	104	92.2	83.1	93.7	96.7	93.6	87.6	25.4	17.6	19.1	119	144	119	132	146	134	108	50.5	19.1	14.9	16.1	104	100	94.6	110	91.9	101	105	85.9	34	16.4	17.9
